Test results: patent US20060148712A1, “Monocyte chemoattractant activity of galectin-3” (priority 2000, published 2006)
Where two headings read alike, the source gives them in different places.

What was measured:
human monocytes = assay: Measurement of Ca2+ influx in monocytes (Indo-1 AM); assay type: cell-based; details: for Induction of Ca2+ influx in human monocytes by chemokine: 100 ng/ml
Description: Intracellular concentrations of Ca^2+ were measured by using Indo-1 AM according to a previously described method (Lopez, et al., Cytometry 10:165-73 (1989)). Purified monocytes were resuspended in HBSS containing 1 mM Ca^2+, 1 mM Mg^2+, and 5% autologous serum, and incubated with […] Indo-1 AM for 45 min at 37° C. The cells were washed once, resuspended in the same buffer, and stimuli and inhibitors were added at the time points specified in the Figure Legends. Intracellular Ca^2+ concentration was measured by monitoring light emission at 405 and 485 nm to an excitation wavelength of 355 nm, using an AMINCO-Bowman series 2 luminescence spectrometer (Rochester, N.Y.).

[1] = system: human peripheral blood monocytes; assay: Monocyte migration assay in vitro (96-well micro Boyden chamber); assay type: cell-based; details: for inhibition at 10000 µM: Homo sapiens, Monocyte, 10 mM lactose, read-out: Inhibition of galectin-3-induced monocyte migration
Text: Human monocytes were purified from venous blood of normal volunteers essentially as described previously (Nakagawara, et al., J. Clin. Invest. 68:1243-53 (1981)). In brief, after erythrocytes were sedimented by addition of 6% dextran saline solution (I part to 5 parts heparinized blood), the leukocytes were collected, washed twice, and resuspended in Ca^2+ and Mg^2+-free HBSS containing 5% autologous serum. Mononuclear cells were acquired by centrifugation of the leukocyte suspension on Ficoll Paque at 1,500 rpm for 15 min. The cells were resuspended in RPMI 1640 containing 10% autologous serum and allowed to adhere to sterile tissue culture plates for 30 min in a humidified incubator at 5% CO2 and 37° C. After incubation, non-adherent cells were removed by washing the plates three times with PBS at 37° C. […] To detach and harvest the adhered monocytes, 1 mM EDTA-PBS containing 5% serum was added and the plates were incubated on ice for 30 min. The monocytes were washed twice with HBSS and resuspended in RPMI 1640 with 0.1% autologous serum for the migration assay. The viability of monocytes was determined by trypan blue exclusion and was more than 98%. In some experiments, monocytes were purified according to another method using a Percoll discontinuous gradient described previously (Chuluyan & Issekutz, J. Clin. Invest. 92:2768-77 (1993)).
(§1) Monocyte migration was examined by using 96-well micro Boyden chambers with 5 μm-pore size filters (Neuro Probe, Inc., Gaithersburg, Md.) as described previously (Falk, et al., J. Immunol. Meth. 33:239-47 (1980)), Chertov, et al., J. Biol. Chem. 271:2935-40 (1996)). Briefly, after the indicated concentrations of galectin-3 in RPMI 1640 were applied to the lower chambers, purified monocyte suspensions (2.5-5.0×10^4/well) were applied to the upper chambers. After incubation of the chambers for 1 h in a humidified incubator at 5% CO2 and 37° C., the filters were washed once with PBS and processed with Wright stain. The number of monocytes on the bottom side of the filters was counted in 5 to 10 high-power fields. Monocyte migration was calculated from the average numbers of the counted cells and expressed as % of input cells in a well.
In assays using inhibitory reagents, the purified monocytes were pretreated with or without the indicated concentrations of B2C10 (Liu, et al., Biochemistry 35:[…] (1996)) or anti-DNP IgG1 (Liu, et al., J. Immunol. 124:2728-31 (1980)) as an isotype-matched control mAb, galectin-3C, or PTX at 37° C. for 30 min. Then the cells were applied to the upper chambers in the presence of these inhibitors at the same concentrations used in the pretreatment. In the assays using lactose and sucrose, the sugars were added to the lower chambers at the initiation of the migration assay.

monocytes = assay type: cell-based, human; details: 1 μg/ml of PTX; data not shown
Description: The possibility that G-proteins might be involved in galectin-3-induced monocyte migration was tested using the inhibitor pertussis toxin (PTX), because it is well known that many chemoattractants, including all chemokines, utilize G-protein-coupled receptors to transduce signals into the cell (Baggiolini, Nature 392:565-68 (1998)).

[2] = system: cultured human peripheral blood macrophages; assay: Migration of cultured human peripheral blood macrophages in vitro; assay type: cell-based; details: confirmed by applicant (FIG. 9)
Text: (§2) Human macrophages were obtained by culturing peripheral blood monocytes in vitro for 7 days as previously described (Fantuzzi, et al., Blood 94:875-83 (1999)). Human alveolar macrophages were obtained from bronchoalveolar lavage (BAL) fluid according to a previously described protocol (Sugimoto et al, Am. Rev. Respir. Dis. 139:1329-35 (1989)). The purity of the macrophages was over 90% and the viability was over 99%.
as §1

[3] = system: human alveolar macrophages; assay: Migration of human alveolar macrophages in vitro; assay type: cell-based
Text: as §2, §1

## SDF-1α
Human monocytes
  Induction of Ca2+ influx in human monocytes by chemokine: induced a Ca^2+ influx

## pertussis toxin [PTX, reference compound]
[1]; 1 μg/ml of PTX, all MCP-1 concentrations examined
  Inhibition of MCP-1-induced monocyte migration: significantly inhibited
[1]; PTX, 1 μM galectin-3, p<0.01, n=5
  Decrease of galectin-3-induced monocyte migration: 91.2%
[1]; PTX, 10 or 100 nM galectin-3, p=0.8501 and 0.3093, n=5
  Inhibition of galectin-3-induced monocyte migration: did not significantly inhibit
Human monocytes; 1 μg/ml of PTX, 100 ng/ml MCP-1
  Effect of PTX on MCP-1-induced Ca2+ influx: blocked
Human monocytes; 1 μg/ml of PTX, 1 μM galectin-3
  Effect of PTX on galectin-3-induced Ca2+ influx: blocked
monocytes
  Viability of monocytes: did not decrease the viability

## OC[C@H]1O[C@@H](O[C@H]2[C@H](O)[C@@H](O)C(O)O[C@@H]2CO)[C@H](O)[C@@H](O)[C@H]1O (some centres unmarked) [lactose, reference compound]
[1]; 5 mM and 10 mM lactose
  Effect on monocyte migration induced by MCP-1: did not affect
[1]; 5 mM lactose, 10 nM galectin-3, p<0.05, n=3
  Decrease of galectin-3-induced monocyte migration: 63.8%
[1]; 5 mM lactose, 100 nM galectin-3, p<0.05, n=3
  Decrease of galectin-3-induced monocyte migration: 71.5%
[1]; 5 mM lactose, 1 μM galectin-3, p<0.05, n=3
  Decrease of galectin-3-induced monocyte migration: 57.6%
[1]; 10 nM galectin-3, p<0.05, n=3
  inhibition at 10000 µM: 78%
[1]; 100 nM galectin-3, p<0.05, n=3
  inhibition at 10000 µM: 74.1%
[1]; 1 μM galectin-3, p<0.05, n=3
  inhibition at 10000 µM: 71.1%
Human monocytes; 5 mM lactose, 100 ng/ml MCP-1
  Inhibition of MCP-1-induced Ca2+ influx: not
Human monocytes; 5 mM lactose, 1 μM galectin-3
  Inhibition of galectin-3-induced Ca2+ influx: complete inhibition

## OC[C@H]1O[C@@](CO)(O[C@H]2O[C@H](CO)[C@@H](O)[C@H](O)[C@H]2O)[C@@H](O)[C@@H]1O [sucrose, reference compound]
[1]; sucrose 5 mM or 10 mM, negative control sugar
  Effect on galectin-3-induced monocyte migration: no significant effect
Human monocytes; 5 mM sucrose, 1 μM galectin-3
  Inhibition of galectin-3-induced Ca2+ influx: not

## MCP-1: human recombinant MCP-1, a strong chemoattractant for monocytes (Pepro Tech)
[1]; dose-response experiments, also printed as 11.6 nM
  Concentration that induced maximum monocyte migration: 100 ng/mL
[2]
  Response of cultured human macrophages to MCP-1: do not respond
[3]; FIG. 10, exp. 1
  Effect on alveolar macrophage migration: no effect
[3]; FIG. 10, exp. 2
  Effect on alveolar macrophage migration: negligible effect
Human monocytes
  Induction of Ca2+ influx in human monocytes by chemokine: induced a Ca^2+ influx
